Tests used:
Hdy-HIF-1α = assay: Immunoblot of HIF-1α / hydroxylated HIF-1α levels in HeLa cells; type: cell-based, Human
Procedure: (§1) Cell culture. Human cell lines HeLa, U2OS and HEK 293, purchased from ATCC, were propagated in DMEM supplemented with 10% fetal bovine serum (FBS), L- glutamine, 100 μg ml^−1 of penicillin/streptomycin at 37 °C and 5% CO2. Cells were maintained for no more than 30 passages. All cell lines were routinely tested for mycoplasma contamination using MycoAlert kit from Lonza. For compound treatment experiments, cells were transferred in six-well plates with either 3 × 10^5 or 5 × 10^5 cells per well in 2 ml of media. At 80% confluence, cells were treated with compounds at the desired concentration, reaching final DMSO concentration of 0.1% v/v. Cells were incubated at 37 °C and 5% CO2 for the desired time before harvesting.
(§2) Immunoblotting. Cells were lysed in lysis buffer (20 mM Tris pH 8, 150 mM NaCl, 1% Triton × 100) and a protease inhibitor cocktail (Roche) per 10 ml buffer. For protein extracts, the dishes were placed on ice. The media was aspirated and the tissue layer washed twice with ice-cold phosphate buffer saline (PBS). Lysis buffer (120 μl) was added and the cells detached from the surface with a cell scraper. After removal of the insoluble fraction by centrifugation, the protein concentration of the supernatant was determined by Pierce™ Coomassie (Bradford) Protein Assay Kit. Protein extracts were fractionated by SDS-PAGE on 4–12% Tris-Acetate NuPage® Novex® (Life Technologies) polyacrylamide gels and transferred to a nitrocellulose membrane using wet transfer. The membrane was then blocked with 5 % w/v Bovine serum albumin (BSA) in Tris-buffered saline (TBS) with 0.1% w/v Tween-20. For detecting proteins the following primary antibodies in the given concentrations were used: anti-β-Actin (Cell Signaling Technology, 4970S, 13E5) 1:2000, anti-VHL (Cell Signaling Technology, #68547) 1:1000, anti-Hif-1α (BD Biosciences, 610959, clone 54) 1:1,000, anti-hydroxy-HIF-1α (Hyp564) (Cell Signaling Techonology; #3434) 1:1,000, anti-PHD2 (Bethyl Laboratories; A300-322A) 1:1,000, anti-PHD3 (Bethyl Laboratories; A300-327A) 1:1000, anti-CRBN (Proteintech; 11435-1-AP) 1:1,000. Following incubation with a horseradish peroxidase-conjugated secondary antibody (Cell Signaling Technology), the signal was developed using enhanced chemiluminescence (ECL) Western Blotting Detection Kit (Amersham) on Amersham Hyperfilm ECL film (Amersham). Band quantification was performed using ImageJ software and reported as relative amount as ratio of the each protein band relative to the lane’s loading control. The values obtained were then normalized to 0.1% DMSO vehicle control. See Supplementary Fig. 12 for full-scanned images of western-blots shown in the main text figures.

HIF-1α = assay: TMT MS proteomics in HeLa cells, HIF-1α level; type: cell-based, Human; details: 150 µM, 10 h
Procedure: MS proteomics. Sample preparation. HeLa cells were seeded at 5 × 10^6 on a 10 cm plate 16 h before treatment. […] Cells were incubated at 37 °C and 5% CO2 for 10 h before harvesting. Cells were placed on ice and medium was removed and cells were washed twice with cold PBS. Cells were lysed in 0.5 ml of 100 mM Tris pH 8.0, 4% (w/v) SDS supplemented with protease inhibitor cocktail (Roche). The lysate was pulse sonicated briefly and then centrifuged at 17,000 × g for 15 min at 4 °C. The supernatant fraction of cell extract was snap-frozen in liquid nitrogen and stored in −80 °C freezer. Further sample processing, digestion, desalting, labeling and fractionation were performed as previously described.
nLC-MS/MS analysis. The TMT 10plex fractions were first analyzed as previously described. Briefly, the TMT 10plex fractions were analyzed sequentially on a Q Exactive HF Hybrid Quadrupole-Orbitrap Mass Spectrometer (Thermo Scientific) coupled to an UltiMate 3000 RSLCnano UHPLC system (Thermo Scientific) and EasySpray column (75 μm × 50 cm, PepMap RSLC C18 column, 2 μm, 100 Å, Thermo Scientific). The MS2 isolation window was set to 0.4 Da and the resolution set at 120,000. MS2 resolution was set at 60,000. […] After the first analysis, the TMT labeled fractions were re-analyzed on the Q-Exactive HF using the same instrument settings and a target list generated from a theoretical trypsin digest of VHL. […]

pVHL19 [1] = target: T1, pVHL19 (Homo sapiens, UniProt P40337); parameters: made in house; method as in PMID 25166285; details: ITC, ref [18]; cited from earlier work
Target sequence in this assay (P40337 54-213): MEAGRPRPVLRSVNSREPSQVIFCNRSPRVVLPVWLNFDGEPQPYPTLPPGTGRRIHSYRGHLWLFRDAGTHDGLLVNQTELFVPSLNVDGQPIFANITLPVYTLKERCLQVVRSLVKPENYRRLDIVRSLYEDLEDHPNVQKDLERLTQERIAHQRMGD
Target sequence in this assay (Q15369 17-112 partner limits assumed): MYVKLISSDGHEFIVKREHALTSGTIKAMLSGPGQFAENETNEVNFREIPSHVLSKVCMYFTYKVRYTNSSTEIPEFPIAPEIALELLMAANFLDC
Target sequence in this assay (Q15370 1-104 partner limits assumed): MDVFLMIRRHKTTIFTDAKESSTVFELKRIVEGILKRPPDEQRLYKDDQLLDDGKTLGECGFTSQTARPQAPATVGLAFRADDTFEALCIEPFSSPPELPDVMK

pVHL30 = pVHL30 (Homo sapiens, UniProt P40337); assay: Immunoblot of pVHL30 protein level in HeLa cells after compound treatment; type: cell-based; parameters: endogenous in cells; host or cells: HeLa; details: 10 h, read-out: pVHL30 band quantification normalized to 0.1% DMSO
Procedure: as §1, §2

pVHL19 [2] = target: T1, pVHL19; assay: Immunoblot of pVHL19 protein level in HeLa cells after compound treatment; type: cell-based; parameters: endogenous in cells; host or cells: HeLa; details: 10 h, read-out: pVHL19 band quantification normalized to 0.1% DMSO
Procedure: as §1, §2
Target sequence in this assay (P40337 54-213): as the sequence (P40337 54-213) above
Target sequence in this assay (Q15369 whole entry partner): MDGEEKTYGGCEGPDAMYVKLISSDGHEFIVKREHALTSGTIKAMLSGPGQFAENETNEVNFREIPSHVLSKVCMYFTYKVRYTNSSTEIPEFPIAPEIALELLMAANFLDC
Target sequence in this assay (Q15370 whole entry partner): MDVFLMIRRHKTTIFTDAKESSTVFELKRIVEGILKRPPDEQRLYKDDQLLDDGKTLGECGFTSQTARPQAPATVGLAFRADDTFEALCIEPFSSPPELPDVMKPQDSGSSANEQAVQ

Chain of pVHL30 (P40337 whole entry): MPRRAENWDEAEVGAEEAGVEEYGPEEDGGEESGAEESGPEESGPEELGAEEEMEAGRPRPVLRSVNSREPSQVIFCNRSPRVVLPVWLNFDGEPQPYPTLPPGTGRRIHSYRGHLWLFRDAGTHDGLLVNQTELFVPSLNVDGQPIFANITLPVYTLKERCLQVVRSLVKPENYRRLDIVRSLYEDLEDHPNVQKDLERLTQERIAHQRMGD

CC(=O)N[C@H](C(=O)N1C[C@H](O)C[C@H]1C(=O)NCc1ccc(-c2scnc2C)cc1)C(C)(C)C [VH032, reference compound]
effect on HIF-1α at 1 µM (Hdy-HIF-1α; HeLa, 1 µM): completely ineffective
concentration at which active in cells (Hdy-HIF-1α; inhibitory concentration of the ligand alone in cells): ~ 100 µM
protein levels of HIF-1α (HIF-1α): increased
ΔG (pVHL19 [1]): –9.17 ± 0.02 kcal mol^−1
ΔH (pVHL19 [1]): –5.53 ± 0.01 kcal mol^−1
−TΔS (pVHL19 [1]): –3.65 ± 0.02 kcal mol^−1
remaining pVHL30 protein level at 150 µM (pVHL30): 127%
remaining activity at 150 µM (pVHL19 [2]): 113%
